Patent publication US10829501B2 (BRISTOL-MYERS SQUIBB COMPANY, priority 2016, dated 2020)
Where a name gives a salt, the structure may show the parent alone.

molecular target: ROCK2 (Homo sapiens, UniProt O75116); test: ROCK2 kinase inhibition assay (LABCHIP 3000 Reader, FITC peptide substrate);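 further: rho kinase reaction read by separating phosphorylated from unphosphorylated peptide on chip, with inhibition of kinase activity computed per concentration across a dose-response series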
Sequence (O75116 whole entry, species assumed): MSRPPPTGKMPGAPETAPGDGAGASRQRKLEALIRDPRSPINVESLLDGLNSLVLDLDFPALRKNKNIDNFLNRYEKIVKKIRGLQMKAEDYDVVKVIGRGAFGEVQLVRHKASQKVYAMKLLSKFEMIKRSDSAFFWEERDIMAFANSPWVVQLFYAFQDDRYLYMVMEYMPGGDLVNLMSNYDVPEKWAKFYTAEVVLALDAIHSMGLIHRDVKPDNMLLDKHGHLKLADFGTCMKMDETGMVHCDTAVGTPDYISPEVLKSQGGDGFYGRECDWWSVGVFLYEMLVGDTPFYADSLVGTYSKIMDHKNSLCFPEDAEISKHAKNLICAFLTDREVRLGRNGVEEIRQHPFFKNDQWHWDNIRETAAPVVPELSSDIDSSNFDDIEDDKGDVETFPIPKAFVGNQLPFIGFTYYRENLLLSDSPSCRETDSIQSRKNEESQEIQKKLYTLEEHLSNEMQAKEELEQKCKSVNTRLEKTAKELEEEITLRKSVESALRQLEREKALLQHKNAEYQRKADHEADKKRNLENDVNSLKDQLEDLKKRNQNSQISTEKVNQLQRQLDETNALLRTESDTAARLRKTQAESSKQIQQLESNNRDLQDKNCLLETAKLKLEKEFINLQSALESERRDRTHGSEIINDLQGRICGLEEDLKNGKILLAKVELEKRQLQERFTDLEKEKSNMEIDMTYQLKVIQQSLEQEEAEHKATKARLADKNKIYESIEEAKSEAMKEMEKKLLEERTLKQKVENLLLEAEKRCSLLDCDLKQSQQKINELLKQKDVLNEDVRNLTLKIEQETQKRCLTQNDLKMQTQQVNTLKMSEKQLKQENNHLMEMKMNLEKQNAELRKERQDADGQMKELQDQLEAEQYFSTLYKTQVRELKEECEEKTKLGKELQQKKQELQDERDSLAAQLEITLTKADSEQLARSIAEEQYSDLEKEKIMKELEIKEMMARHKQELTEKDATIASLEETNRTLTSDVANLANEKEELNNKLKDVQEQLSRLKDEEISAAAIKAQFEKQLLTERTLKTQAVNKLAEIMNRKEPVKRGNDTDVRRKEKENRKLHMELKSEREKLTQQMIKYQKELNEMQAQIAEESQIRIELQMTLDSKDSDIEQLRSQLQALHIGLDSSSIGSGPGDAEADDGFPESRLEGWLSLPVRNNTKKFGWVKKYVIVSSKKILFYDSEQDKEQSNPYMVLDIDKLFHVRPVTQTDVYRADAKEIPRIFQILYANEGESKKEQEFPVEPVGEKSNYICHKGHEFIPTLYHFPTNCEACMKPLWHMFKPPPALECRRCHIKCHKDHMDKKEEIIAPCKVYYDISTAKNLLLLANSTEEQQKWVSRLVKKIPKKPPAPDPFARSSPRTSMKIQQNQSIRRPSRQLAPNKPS

Row | Compound | IC50 [nM]
1 | [2H]C([2H])([2H])n1cc(-c2cc(C(=O)N[C@H]3CC4(C3)C[C@H](Oc3ncccc3C(N)=O)C4)cc(S(C)(=O)=O)c2)cn1 (some centres unmarked) [Example 53, 2-{[(4s)-6-{3-methanesulfonyl-5-[1-(^2H3)methyl-1H-pyrazol-4-yl]benzamido}spiro[3.3]heptan-2-yl]oxy}pyridine-3-carboxamide] | 5 to 50
2 | [H][C@]1(Oc2ncccc2C(N)=O)C[C@@]2(C[C@H](NC(=O)c3cccc(-c4cnn(C)c4)c3)C2)C1 (some centres unmarked) [Example 54] | 50 to 250
3 | [H][C@]1(Oc2ncccc2C(N)=O)C[C@@]2(C[C@H](NC(=O)c3cccc(-c4cccc(S(C)(=O)=O)c4)c3)C2)C1 (some centres unmarked) [Example 55] | 50 to 250
4 | [H][C@]1(Oc2ncccc2C(N)=O)C[C@@]2(C[C@H](NC(=O)c3cc(Br)cc(OCCC(F)(F)F)c3)C2)C1 (some centres unmarked) [Example 56] | 5 to 50
5 | [H][C@]1(Oc2ncccc2C(N)=O)C[C@@]2(C[C@H](NC(=O)c3cc(OCCC(F)(F)F)cc(-c4cnn(C)c4)c3)C2)C1 (some centres unmarked) [Example 57] | 50 to 250
6 | [H][C@]1(Oc2ncccc2C(N)=O)C[C@@]2(C[C@H](NC(=O)c3cc(OCCC(F)(F)F)cc(-c4cccc(S(C)(=O)=O)c4)c3)C2)C1 (some centres unmarked) [Example 58] | 50 to 250
7 | [H][C@]1(Oc2ncccc2C(N)=O)C[C@@]2(C[C@H](NC(=O)c3cnc4c(OC)cc(Cl)nn34)C2)C1 (stereo partly drawn) [Example 60, N-((aR)-6-((3-carbamoylpyridin-2-yl)oxy)spiro[3.3]heptan-2-yl)-6-chloro-8-methoxyimidazo[1,2-b]pyridazine-3-carboxamide] | 250 to 2500
8 | [H][C@]1(Oc2ncccc2C(N)=O)C[C@@]2(C[C@H](NC(=O)c3cn4nc(Cl)ccc4n3)C2)C1 (stereo partly drawn) [Example 62, N-((aR)-6-((3-carbamoylpyridin-2-yl)oxy)spiro[3.3]heptan-2-yl)-6-chloroimidazo[1,2-b]pyridazine-2-carboxamide] | 250 to 2500
9 | [H][C@]1(Oc2ncccc2C(N)=O)C[C@@]2(C[C@H](NC(=O)c3cn4cc(C(N)=O)ccc4n3)C2)C1 (stereo partly drawn) [Example 63, N^2-((aR)-6-((3-carbamoylpyridin-2-yl)oxy)spiro[3.3]heptan-2-yl)imidazo[1,2-a]pyridine-2,6-dicarboxamide] | 250 to 2500
10 | Cn1ncc2cc(C(=O)N[C@H]3CC4(C3)C[C@H](Oc3ncccc3C(N)=O)C4)ccc21 (stereo partly drawn) [Example 68, N-((aR)-6-((3-carbamoylpyridin-2-yl)oxy)spiro[3.3]heptan-2-yl)-1-methyl-1H-indazole-5-carboxamide, trifluoroacetae] | 50 to 250
11 | NC(=O)c1cccnc1O[C@H]1CC2(C[C@H](NC(=O)c3ccn4ccnc4c3)C2)C1 (stereo partly drawn) [Example 71, N-((aR)-6-((3-carbamoylpyridin-2-yl)oxy)spiro[3.3]-heptan-2-yl)imidazo[1,2-a] pyridine-7-carboxamdie, trifluoroacetate] | 250 to 2500
12 | NC(=O)c1cccnc1O[C@H]1CC2(C[C@H](NC(=O)c3ccc(-n4cccn4)cc3)C2)C1 (stereo partly drawn) [Example 74, 2-((aR)-6-(4-(1H-pyrazol-1-yl)benzamido)spiro[3.3]heptan-2-yl)oxy) nicotinamide, trifluoroacetate] | 250 to 2500
13 | Cn1nc(C(C)(C)C)cc1C(=O)N[C@H]1CC2(C1)C[C@H](Oc1ncccc1C(N)=O)C2 (stereo partly drawn) [Example 77, 2-((aR)-6-(3-(tert-butyl)-1-methyl-1H-pyraole-5-carboxamido)spiro[3.3]heptan-2-yl)oxy) nicotinamide, trifluoroacetate] | 5 to 50

Now from value to compound:

Row | IC50 [nM] | Compound
14 | < 5 | [H][C@]1(Oc2ncccc2C(N)=O)C[C@@]2(C[C@H](NC(=O)c3cnn4c(C5CC5)c(OCC(C)(C)F)ccc34)C2)C1 (stereo partly drawn) [Example 49, N-((aR)-6-((3-carbamoylpyridin-2-yl)oxy)spiro[3.3]heptan-2-yl)-7-cyclopropyl-6-(2-fluoro-2-methylpropoxy)pyrazolo[1,5-a]pyridine-3-carboxamide]
15 | 5 to 50 | [H][C@]1(Oc2ncccc2C(N)=O)C[C@@]2(C[C@H](NC(=O)c3nn(CC(C)(C)O)c4ccc(-c5cnn(C)c5)cc34)C2)C1 (stereo partly drawn) [Example 50, N-((aR)-6-((3-carbamoylpyridin-2-yl)oxy)spiro[3.3]heptan-2-yl)-1-(2-hydroxy-2-methylpropyl)-5-(1-methyl-1H-pyrazol-4-yl)-1H-indazole-3-carboxamide]
16 | 5 to 50 | [H][C@]1(Oc2ncccc2C(N)=O)C[C@@]2(C[C@H](NC(=O)c3cc(-c4cnn(C(F)F)c4)cc(S(C)(=O)=O)c3)C2)C1 (some centres unmarked) [Example 51]
17 | 5 to 50 | [H][C@]1(Oc2ncccc2C(N)=O)C[C@@]2(C[C@H](NC(=O)c3cc(-c4cnn(C)c4)cc(S(C)(=O)=O)c3)C2)C1 (some centres unmarked) [Example 52]
18 | 250 to 2500 | [H][C@]1(Oc2ncccc2C(N)=O)C[C@@]2(C[C@H](NC(=O)c3cn4nc(OC)ccc4n3)C2)C1 (stereo partly drawn) [Example 59, N-((aR)-6-((3-carbamoylpyridin-2-yl)oxy)spiro[3.3]heptan-2-yl)-6-methoxyimidazo[1,2-b]pyridazine-2-carboxamide]
19 | 50 to 250 | [H][C@]1(Oc2ncccc2C(N)=O)C[C@@]2(C[C@H](NC(=O)c3cn4nc(OCC(F)(F)F)ccc4n3)C2)C1 (stereo partly drawn) [Example 61, N-((aR)-6-((3-carbamoylpyridin-2-yl)oxy)spiro[3.3]heptan-2-yl)-6-(2,2,2-trifluoroethoxy)imidazo[1,2-b]pyridazine-2-carboxamide]
20 | 5 to 50 | CC(C)(O)COc1ccc2c(C(=O)N[C@H]3CC4(C3)C[C@H](Oc3ncccc3C(N)=O)C4)cnn2c1 (stereo partly drawn) [Example 64, N-((aR)-6-((3-carbamoylpyridin-2-yl)oxy)spiro[3.3]-heptan-2-yl)-6-(2-hydroxy-2-methylpropoxy) pyrazolo-[1,5-a]pyridine-3-carboxamide, trifluoroacetate]
21 | < 5 | CC(C)(O)COc1ccn2c(C(=O)N[C@H]3CC4(C3)C[C@H](Oc3ncccc3C(N)=O)C4)cnc2c1C1CC1 (stereo partly drawn) [Example 65, N-((aR)-6-((3-carbamoylpyridin-2-yl)oxy)spiro[3.3]heptan-2-yl)-8-cyclopropyl-7-(2-hydroxy-2-methylpropoxy) imidazo[1,2-a]pyridine-3-carboxamide, trifluoroacetate]
22 | 5 to 50 | Cn1nc(C(=O)N[C@H]2CC3(C2)C[C@H](Oc2ncccc2C(N)=O)C3)c2ccccc21 (some centres unmarked) [Example 66]
23 | 50 to 250 | Cn1c(C(=O)N[C@H]2CC3(C2)C[C@H](Oc2ncccc2C(N)=O)C3)cc2ccccc21 (stereo partly drawn) [Example 70, N-((aR)-6-((3-carbamoylpyridin-2-yl)oxy)spiro[3.3]heptan-2-yl)-1-methyl-1H-indole-2-carboxamide, trifluoroacetate]
24 | 5 to 50 | NC(=O)c1cccnc1O[C@H]1CC2(C[C@H](NC(=O)c3cnc4ccccc4c3)C2)C1 (stereo partly drawn) [Example 72, N-((aR)-6-((3-carbamoylpyridin-2-yl)oxy)spiro[3.3]-heptan-2-yl)quinoline-3-carboxamide, trifluoroacetate]
25 | 250 to 2500 | NC(=O)c1cccnc1O[C@H]1CC2(C[C@H](NC(=O)c3cn4ccccc4n3)C2)C1 (stereo partly drawn) [Example 75, N-((aR)-6-((3-carbamoylpyridin-2-yl)oxy)spiro[3.3]-heptan-2-yl)imidazo[1,2-a] pyridine-2-carboxamide, trifluoroacetate]
26 | 250 to 2500 | N#Cc1ccc2nc(C(=O)N[C@H]3CC4(C3)C[C@H](Oc3ncccc3C(N)=O)C4)cn2c1 (stereo partly drawn) [Example 76, N-((aR)-6-((3-carbamoylpyridin-2-yl)oxy)spiro-[3.3]heptan-2-yl)-6-cyanoimidazo-[1,2-a]pyridine-2-carboxamide, trifluoroacetate]
